Data published in patent US20220289731A1, “MELANOCORTIN-4 RECEPTOR AGONISTS” (LG CHEM, LTD., priority 2019, published 2022).

Columns and labels:
[1] = tested on: mouse obesity model induced by high fat diet; assay: Mouse obesity model induced by high fat diet; format: in vivo, C57BL/6Ntaconic mice; conditions: oral once a day, high-fat-diet obese mice
Experimental: The effect of melanocortin-4 receptor agonists on obesity was evaluated by using the mouse obesity model induced with a high fat diet.
Five-week-old male C57BL/6Ntaconic mice were fed with a 60 kcal % fat diet (D12492, Research Diet.) for 15 weeks to induce obesity. The compound of Example 1, the compounds of the comparative examples (A95 and A96), and sibutramine as a positive control were prepared in distilled water and orally administered to […] mouse obesity models induced by a high-fat diet once a day from day 1 to day 16. From Day 1 to Day 16, the body weight was measured once a day, the dietary intake was measured five times a week, and drinking water intake was measured twice a week. Blood glucose and glycated hemoglobin were measured on Day 15, and all animals were sacrificed on Day 17. Blood was collected through the abdominal vena cava, and the liver and epididymal adipose tissues were removed and weighed. The collected blood was placed in a heparin tube and centrifuged to separate plasma, and then plasma biochemical analysis was performed.

MC4R [2] = molecular target: T1, MC4R (Homo sapiens, UniProt P32245); assay: cAMP assay (cAMP Hunter Gs-coupled CHO-K1 cell line); format: cell-based; set-up: expressed in transfected cells; host or cells: CHO-K1 (cAMP Hunter Gs-coupled cell line); conditions: CHO-K1 cells overexpressing MC4R, 30 min at 37° C.
Excerpt: The melanocortin receptor is a type of G-protein coupled receptor (GPCR), and the main role of G-protein is to activate secondary transducers to regulate cellular responses to many physiological stimuli through signal transduction. MC4R is a Gs-coupled receptor, and it is known that if MC4R interacts with an agonist, adenylate cyclase (AC) is activated to increase the concentration of cyclic AMP (cAMP), which is one of the secondary transducers in cells. Therefore, it is possible to evaluate the activity of melanocortin receptors by measuring the generation of cAMP signals.
After cAMP Hunter Gs-coupled cell lines (CHO-K1 cell line) in which each of MC1R, MC3R, MC4R and MCSR was overexpressed were established so that the increase in the cAMP level in cells due to agonist reaction was measurable, the cells were inoculated into each well of a white cell culture plate and incubated for 24 hours in a 37° C. incubator in the presence of 5% CO2. After the incubation, the medium was removed, and 15 μl of a 2:1 HBBS/10 mM HEPES:cAMP XS+Ab reagent was added. After 5 μl of the sample diluted 4 times with buffer was added, the vehicle concentration was set to 1%, and the MC4R agonist compound diluted at each step concentration was added, followed by reaction at 37° C. for 30 minutes. The activity (%) of each agonist compound is expressed as 100%×(average RLU value of sample−average RLU value of vehicle control)/(average RLU value of max control−average RLU value of vehicle control), and the value was analyzed by CBIS data analysis suite (ChemInnovation, CA).
Target sequence in this assay (P32245 whole entry, species assumed): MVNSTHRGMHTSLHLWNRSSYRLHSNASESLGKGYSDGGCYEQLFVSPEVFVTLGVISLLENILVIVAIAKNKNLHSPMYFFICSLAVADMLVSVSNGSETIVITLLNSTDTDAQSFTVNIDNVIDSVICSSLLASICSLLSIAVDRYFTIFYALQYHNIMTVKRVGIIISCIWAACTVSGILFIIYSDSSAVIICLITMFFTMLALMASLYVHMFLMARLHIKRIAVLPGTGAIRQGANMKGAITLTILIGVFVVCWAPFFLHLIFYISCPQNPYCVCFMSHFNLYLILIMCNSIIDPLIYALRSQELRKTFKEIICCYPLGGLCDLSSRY

MC4R [3] = molecular target: T1, MC4R; assay: β-arrestin assay (Pathhunter eXpress U2OS cell line); format: cell-based; set-up: expressed in transfected cells; host or cells: U2OS (Pathhunter eXpress β-arrestin cell line); conditions: U2OS cells, 90 min at 37° C.
Excerpt: The melanocortin receptor is a type of G-protein coupled receptor (GPCR) and regulates various physiological responses by transducing signals from many neurotransmitters. When GPCR is phosphorylated, β-arrestin is bound to the phosphorylated part of the receptor and plays an important role in activating various signaling pathways in cells through interaction with other proteins. It is known that, when the melanocortin receptor interacts with an agonist, β-arrestin is mobilized and is involved in the β-arrestin-mediated signaling pathway. Therefore, the activity of the melanocortin receptor can be evaluated through the measurement of β-arrestin.
A Pathhunter eXpress β-arrestin cell line (U2OS cell line) in which Prolink (PK)-tagged MC1R, MC3R, MC4R, MC5R and Enzyme acceptor (EA)-tagged β-arrestin were expressed together was established. When the MCR-PK portion of this cell line is activated, β-arrestin-EA is mobilized, and enzyme acceptor (EA) and Prolink (PK), which are the β-galactosidase enzyme fragments, interact. The activated enzyme hydrolyzes the substrate by β-galactosidase activity to produce a chemiluminescent signal, so that the activity can be measured. After the Pathhunter eXpress β-arrestin cell line (U2OS cell line) was incubated, the cells were inoculated into each well of the cell culture plate and incubated for 48 hours in a 37° C. incubator in the presence of 5% CO2. After the incubation, 5 μl of the sample diluted 5 times with buffer was added, the vehicle concentration was set to 1%, and the MC4R agonist compound diluted at each step concentration was added, followed by reaction at 37° C. for 90 minutes. The activity (%) of each agonist compound is expressed as 100%×(average RLU value of sample−average RLU value of vehicle control)/(average maximum value of control ligand−average RLU value of vehicle control), and the value was analyzed by CBIS data analysis suite (ChemInnovation, CA).
Target sequence in this assay (P32245 whole entry): as the sequence (P32245 whole entry, species assumed) above
Target sequence in this assay (P32121 whole entry partner): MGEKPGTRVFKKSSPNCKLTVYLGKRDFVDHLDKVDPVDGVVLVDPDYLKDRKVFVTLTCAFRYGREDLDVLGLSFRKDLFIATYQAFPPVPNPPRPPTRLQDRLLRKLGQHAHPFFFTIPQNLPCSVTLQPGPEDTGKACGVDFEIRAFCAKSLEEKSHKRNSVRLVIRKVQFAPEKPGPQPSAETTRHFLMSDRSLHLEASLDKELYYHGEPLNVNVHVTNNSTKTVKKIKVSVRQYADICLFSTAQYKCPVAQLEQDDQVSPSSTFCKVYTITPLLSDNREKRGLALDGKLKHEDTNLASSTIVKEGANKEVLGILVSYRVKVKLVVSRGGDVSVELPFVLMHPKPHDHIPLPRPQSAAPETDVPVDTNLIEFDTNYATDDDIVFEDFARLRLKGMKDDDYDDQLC

| EC50 (MC4R [2]) | EC50 (MC4R [3]) | Structure (SMILES) | Difference in weight change rate to vehicle ([1]; Day 12, 10 mg/kg) | Difference in weight change rate to vehicle ([1]; Day 12, 30 mg/kg) |
| --- | --- | --- | --- | --- |
| 0.335 µM | 0.176 µM | CC(=O)N(C1CCC(C)(C)CC1)[C@H]1C[C@@H](C(=O)N2CCOCC2)N(C(=O)[C@@H]2CN(C(C)(C)C)C[C@H]2c2ccc(F)cc2F)C1.Cl [Comparative Example 1 (A95), N-((3S,5S)-1-((3S,4R)-1-(tert-butyl)-4-(2,4-difluorophenyl)pyrrolidine-3-carbonyl)-5-(morpholine-4-carbonyl)pyrrolidin-3-yl)-N-(4,4-dimethylcyclohexyl)acetamide hydrochloride] | −4.8% | −4.0% |
| 0.15 µM | 0.0443 µM | CC(=O)N(C1CCC(C)(C)CC1)[C@H]1C[C@@H](C(=O)N2CCOCC2)N(C(=O)[C@@H]2CN(C(C)(C)C)C[C@H]2c2ccc(Cl)cc2)C1.Cl [Comparative Example 2 (A96), N-((3S,5S)-1-((3S,4R)-1-(tert-butyl)-4-(4-chlorophenyl)pyrrolidine-3-carbonyl)-5-(morpholine-4-carbonyl)pyrrolidin-3-yl)-N-(4,4-dimethylcyclohexyl)acetamide hydrochloride] | −0.2% | −7.1% |
| 0.0365 µM | 0.0046 µM | CC(C)C(=O)N([C@H]1C[C@@H](C(=O)N2CCOCC2)N(C(=O)[C@@H]2CN(C(C)(C)C)C[C@H]2c2ccc(Cl)cc2)C1)[C@H]1CC[C@@H](C)CC1.Cl [Example 1, N-((3S,5S)-1-((3S,4R)-1-(tert-butyl)-4-(4-chlorophenyl)pyrrolidine-3-carbonyl)-5-(morpholine-4-carbonyl)pyrrolidin-3-yl)-N-((1s,4R)-4-methylcyclohexyl)isobutyramide hydrochloride] | – | – |
